Experimental data as given in BindingDB's records for doi:10.1016/j.bioorg.2012.08.003 (North-West University, 2012).

Experiments:
[1] = molecular target: T1, Amine oxidase [flavin-containing] A (Homo sapiens, UniProt P21397); assay: Inhibition Assay; conditions: pH 7.4; 37 °C
T1 sequence (P21397 whole entry): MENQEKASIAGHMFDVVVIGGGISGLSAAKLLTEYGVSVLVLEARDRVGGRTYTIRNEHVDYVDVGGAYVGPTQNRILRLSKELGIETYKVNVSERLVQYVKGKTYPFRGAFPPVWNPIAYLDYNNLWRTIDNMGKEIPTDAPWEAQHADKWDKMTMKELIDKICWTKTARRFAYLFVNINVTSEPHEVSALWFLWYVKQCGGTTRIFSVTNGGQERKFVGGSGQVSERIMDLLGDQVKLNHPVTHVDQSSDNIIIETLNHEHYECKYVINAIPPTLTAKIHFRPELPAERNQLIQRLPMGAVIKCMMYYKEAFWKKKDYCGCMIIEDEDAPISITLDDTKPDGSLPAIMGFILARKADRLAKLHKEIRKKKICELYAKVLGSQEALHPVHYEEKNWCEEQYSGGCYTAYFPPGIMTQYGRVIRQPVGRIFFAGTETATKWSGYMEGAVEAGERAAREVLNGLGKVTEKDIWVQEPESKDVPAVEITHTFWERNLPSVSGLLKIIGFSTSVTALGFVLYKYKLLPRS
Source text: (§1) Inhibition studies using recombinant human MAO-A and MAO-B that were obtained from commercial sources (Sigma-Aldrich).

[2] = molecular target: T2, Amine oxidase [flavin-containing] B (Homo sapiens, UniProt P27338); assay: Inhibition Assay; conditions: pH 7.4; 37 °C
T2 sequence (P27338 whole entry): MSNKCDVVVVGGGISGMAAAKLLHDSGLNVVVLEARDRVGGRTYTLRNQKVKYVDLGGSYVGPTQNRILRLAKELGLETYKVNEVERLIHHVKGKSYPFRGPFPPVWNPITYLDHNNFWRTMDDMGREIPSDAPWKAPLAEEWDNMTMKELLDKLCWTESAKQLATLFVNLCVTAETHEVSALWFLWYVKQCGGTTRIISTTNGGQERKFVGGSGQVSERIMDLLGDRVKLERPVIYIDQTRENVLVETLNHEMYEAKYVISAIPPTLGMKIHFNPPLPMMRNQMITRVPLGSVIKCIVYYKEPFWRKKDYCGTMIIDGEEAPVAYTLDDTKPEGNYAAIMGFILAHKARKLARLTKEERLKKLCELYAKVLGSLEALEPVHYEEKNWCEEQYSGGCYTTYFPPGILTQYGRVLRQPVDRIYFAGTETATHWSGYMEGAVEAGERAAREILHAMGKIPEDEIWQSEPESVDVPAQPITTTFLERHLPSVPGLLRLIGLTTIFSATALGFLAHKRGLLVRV
Source text: as §1

| IC50 [1] [µM] | IC50 [2] [µM] | SMILES |
| --- | --- | --- |
| 5.33 | 0.085 | O=c1ccoc2cc(OCc3ccccc3)ccc12 [C7-substituted chromone derivative, 3a] |
| 2.19 | 0.115 | O=c1ccoc2cc(OCCc3ccccc3)ccc12 [C7-substituted chromone derivative, 3b] |
| 3.08 | 0.121 | O=c1ccoc2cc(OCCCc3ccccc3)ccc12 [C7-substituted chromone derivative, 3c] |
| 1.52 |  | O=c1ccoc2cc(OCc3cccc(Cl)c3)ccc12 [C7-substituted chromone derivative, 3d] |
| 0.495 | 0.029 | O=c1ccoc2cc(OCc3ccc(Cl)cc3)ccc12 [C7-substituted chromone derivative, 3e] |
| 1.73 | 0.014 | O=c1ccoc2cc(OCc3cccc(Br)c3)ccc12 [C7-substituted chromone derivative, 3f] |
| 0.592 | 0.018 | O=c1ccoc2cc(OCc3ccc(Br)cc3)ccc12 [C7-substituted chromone derivative, 3g] |
| 2.1 | 0.044 | O=c1ccoc2cc(OCc3cccc(F)c3)ccc12 [C7-substituted chromone derivative, 3h] |
| 1.17 |  | O=c1ccoc2cc(OCc3ccc(F)cc3)ccc12 [C7-substituted chromone derivative, 3i] |
| 8.03 | 0.062 | Cc1cccc(COc2ccc3c(=O)ccoc3c2)c1 [C7-substituted chromone derivative, 3j] |
| 7.12 | 0.075 | Cc1ccc(COc2ccc3c(=O)ccoc3c2)cc1 [C7-substituted chromone derivative, 3k] |
| 0.784 | 0.37 | N#Cc1cccc(COc2ccc3c(=O)ccoc3c2)c1 [C7-substituted chromone derivative, 3l] |
| 1.57 | 0.117 | N#Cc1ccc(COc2ccc3c(=O)ccoc3c2)cc1 [C7-substituted chromone derivative, 3m] |
| 1.97 |  | O=c1ccoc2cc(OCc3ccc(C(F)(F)F)cc3)ccc12 [C7-substituted chromone derivative, 3n] |
| 0.718 | 0.317 | O=c1ccoc2cc(OCCc3ccc(Br)cc3)ccc12 [C7-substituted chromone derivative, 3o] |
